cytotoxicity, IC50 and inhibition data for six molecules are collected here from ChEMBL document CHEMBL5335804, “Design, synthesis and biological evaluation of 2-phenylaminopyrimidine derivatives as EGFR inhibitors” (Bioorg Med Chem Lett, 2024).

Data set [1] can be described thus: Cytotoxicity against human NCI-H838 cells harboring wild type EGFR at 500 nM. The class given is toxicity, cell-based. The note with it: read-out: INH.
In another data set the test system is BaF3. As to the kind of experiment: cells. The conditions noted are these: Mus musculus.
In data set [2] the test system is Epidermal growth factor receptor (Homo sapiens), P00533 [L858R,T790M,C797S]. The conditions noted are these: dose 500.0 nM.
Chain of Epidermal growth factor receptor (Homo sapiens), P00533 [L858R,T790M,C797S] (P00533 whole entry T790M/C797S/L858R): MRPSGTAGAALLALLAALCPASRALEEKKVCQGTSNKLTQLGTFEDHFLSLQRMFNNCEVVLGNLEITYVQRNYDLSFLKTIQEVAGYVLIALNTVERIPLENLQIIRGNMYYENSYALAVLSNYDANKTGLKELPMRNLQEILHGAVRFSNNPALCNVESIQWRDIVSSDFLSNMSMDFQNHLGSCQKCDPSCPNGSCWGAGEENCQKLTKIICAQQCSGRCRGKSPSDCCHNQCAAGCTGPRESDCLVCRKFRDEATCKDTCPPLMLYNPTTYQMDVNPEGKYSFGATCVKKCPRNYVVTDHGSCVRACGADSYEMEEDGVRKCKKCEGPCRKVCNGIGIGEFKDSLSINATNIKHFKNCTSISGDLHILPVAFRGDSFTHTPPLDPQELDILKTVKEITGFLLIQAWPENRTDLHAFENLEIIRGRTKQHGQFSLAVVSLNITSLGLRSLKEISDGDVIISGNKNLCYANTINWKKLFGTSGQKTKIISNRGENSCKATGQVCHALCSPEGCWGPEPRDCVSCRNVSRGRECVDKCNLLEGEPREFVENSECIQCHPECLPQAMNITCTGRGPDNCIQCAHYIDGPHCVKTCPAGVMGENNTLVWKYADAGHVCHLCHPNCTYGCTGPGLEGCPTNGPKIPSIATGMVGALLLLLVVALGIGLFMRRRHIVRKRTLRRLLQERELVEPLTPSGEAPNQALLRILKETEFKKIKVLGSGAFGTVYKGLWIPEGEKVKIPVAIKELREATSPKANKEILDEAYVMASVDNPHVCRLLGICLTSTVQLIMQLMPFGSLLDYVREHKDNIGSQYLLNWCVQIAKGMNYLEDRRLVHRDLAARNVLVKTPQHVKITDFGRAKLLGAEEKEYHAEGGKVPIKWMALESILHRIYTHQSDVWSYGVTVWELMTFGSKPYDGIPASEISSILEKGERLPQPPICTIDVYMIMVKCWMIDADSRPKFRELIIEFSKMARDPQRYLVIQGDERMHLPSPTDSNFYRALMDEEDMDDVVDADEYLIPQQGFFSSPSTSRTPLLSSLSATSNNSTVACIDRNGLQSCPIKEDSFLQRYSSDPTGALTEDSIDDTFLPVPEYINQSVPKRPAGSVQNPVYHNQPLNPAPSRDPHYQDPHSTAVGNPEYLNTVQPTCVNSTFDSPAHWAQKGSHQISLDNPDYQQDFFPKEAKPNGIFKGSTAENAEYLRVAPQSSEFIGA

As usually defined, the IC50 is the concentration that inhibits the measured activity by half. The low end stands for greater potency, the high end for weaker potency. As for `COc1cc(N2CCC(N3CCN(C)CC3)CC2)c(C)cc1Nc1nccc(-n2cc(CN[C@H](C)CO)c(-c3ccccc3)n2)n1`, the cytotoxicity at 0.5 µM in data set [1] was found to be 17.1%. The molecule also showed a half-maximal inhibitory concentration (IC50) with BaF3 of 260 nM.
A word on the inhibition: it is how much of the control response was suppressed. High values mean a response far below the control, low ones a response near the control. In the case of `COc1cc(N2CCC(N3CCN(C)CC3)CC2)ccc1Nc1ncc(Cl)c(Nc2ccccc2P(C)(C)=O)n1` [BRIGATINIB], the cytotoxicity at 0.5 µM in data set [1] came out at 92.4%. In data set [2], this molecule yielded an inhibition of 84.6%. Further, in the data set on BaF3, the IC50 was determined as 542 nM.
Turning to `COc1cc(N2CCC(N3CCN(C)CC3)CC2)c(C)cc1Nc1nccc(-n2cc(CNC(CO)C(C)C)c(-c3ccccc3)n2)n1` (stereo not drawn), the cytotoxicity at 0.5 µM in data set [1] came to 31.8%. Moreover, the half-maximal inhibitory concentration (IC50) in the data set with BaF3 was 292 nM.
In the case of `COc1cc(N2CCC(N3CCN(C)CC3)CC2)c(C)cc1Nc1nccc(-n2cc(CNCCO)c(-c3ccccc3)n2)n1`, the cytotoxicity at 0.5 µM in data set [1] was 33.2%. In the data set with BaF3, this molecule had an IC50 of 485 nM.
Consider `COc1cc(N2CCC(N3CCN(C)CC3)CC2)c(C)cc1Nc1nccc(-n2cc(CN[C@@H](C)CO)c(-c3ccccc3)n2)n1`, for which the cytotoxicity at 0.5 µM in data set [1] came out at 14.9%. In the data set on BaF3, 106 nM corresponded to half-maximal inhibition (IC50).
In the same order, the values of `COc1cc(N2CCC(N3CCN(C)CC3)CC2)c(C)cc1Nc1nccc(-n2cc(CNC(C)CO)c(-c3ccccc3)n2)n1` (stereo not drawn) are 25.6% and 143 nM.
